Reference: the NIST ThermoML archive (doi:10.1021/je800026p)

Test: xn = mol fraction of the nth substance listed
Conditions: 101 kPa, Liquid; for speed of sound: Sing-around technique in a fixed-path interferometer; for mass density: Vibrating tube method

CCCCCCOCCOCCO [2-(2-hexyloxyethoxy)ethanol] + CCCCN
Conditions	mass density, 288.15 K [kg/m3]	mass density, 293.15 K [kg/m3]	mass density, 298.15 K [kg/m3]	mass density, 303.15 K [kg/m3]	mass density, 308.15 K [kg/m3]	speed of sound, 288.15 K [m/s]	speed of sound, 293.15 K [m/s]	speed of sound, 298.15 K [m/s]	speed of sound, 303.15 K [m/s]	speed of sound, 308.15 K [m/s]
x1 = 0.1165	788.964	784.34	779.774	775.186	770.602	1323	1302.2	1281.5	1260.8	1240.3
x1 = 0.1587	803.568	799.044	794.52	790	785.486	1332.3	1312	1291.7	1271.5	1251.3
x1 = 0.1943	814.988	810.552	806.078	801.606	797.118	1339.5	1319.7	1299.7	1279.8	1259.8
x1 = 0.2403	828.571	824.179	819.765	815.333	810.88	1348.2	1328.7	1309.1	1289.6	1270
x1 = 0.2974	843.631	839.297	834.939	830.566	826.173	1357.8	1338.8	1319.6	1300.6	1281.3
x1 = 0.3403	853.769	849.458	845.129	840.783	836.421	1364.2	1345.5	1326.6	1307.9	1288.9
x1 = 0.3916	864.666	860.386	856.092	851.78	847.457	1371.1	1352.6	1334.1	1315.7	1297.1
x1 = 0.4568	876.866	872.668	868.407	864.132	859.843	1378.6	1360.4	1342.2	1324.2	1306
x1 = 0.5105	885.772	881.607	877.388	873.158	868.903	1383.9	1365.9	1348	1330.1	1312.3
x1 = 0.5658	894.125	889.991	885.768	881.571	877.355	1388.5	1370.7	1353	1335.3	1317.8
x1 = 0.6081	900.031	895.896	891.728	887.547	883.355	1391.5	1373.9	1356.3	1338.8	1321.2
x1 = 0.6559	906.287	902.162	898.025	893.876	889.716	1394.5	1376.9	1359.5	1342.1	1324.9
x1 = 0.6977	911.396	907.303	903.194	899.074	894.942	1396.7	1379.2	1361.8	1344.5	1327.5
x1 = 0.7402	916.322	912.248	908.162	904.067	899.964	1398.6	1381.2	1363.9	1346.7	1329.8
x1 = 0.8029	923	918.949	914.893	910.805	906.755	1400.8	1383.5	1366.4	1349.3	1332.5
x1 = 0.8675	928.954	924.929	920.91	916.89	912.833	1402.5	1385.4	1368.3	1351.4	1334.6
x1 = 0.9082	932.126	928.121	924.113	920.095	916.07	1403.4	1386.3	1369.3	1352.4	1335.7
x1 = 0.9635	935.472	931.477	927.494	923.492	919.484	1404.3	1387.4	1370.4	1353.6	1336.8

CCCCCCOCCOCCO [2-(2-hexyloxyethoxy)ethanol] + CCCCN(CCCC)CCCC
Conditions	mass density, 288.15 K [kg/m3]	mass density, 293.15 K [kg/m3]	mass density, 298.15 K [kg/m3]	mass density, 303.15 K [kg/m3]	mass density, 308.15 K [kg/m3]	speed of sound, 288.15 K [m/s]	speed of sound, 293.15 K [m/s]	speed of sound, 298.15 K [m/s]	speed of sound, 303.15 K [m/s]	speed of sound, 308.15 K [m/s]
x1 = 0.1168	797.427	793.696	789.759	785.812	782.055	1294	1274.9	1256	1237.3	1219
x1 = 0.1659	804.49	800.716	796.756	792.8	788.975	1298.2	1279.2	1260.3	1241.7	1223.4
x1 = 0.2092	810.815	806.993	803.027	799.078	795.2	1302.1	1283.1	1264.3	1245.8	1227.5
x1 = 0.2589	818.158	814.291	810.334	806.371	802.458	1306.8	1287.9	1269.2	1250.8	1232.5
x1 = 0.3155	826.596	822.69	818.738	814.795	810.825	1312.6	1293.8	1275.2	1256.8	1238.6
x1 = 0.3564	832.755	828.829	824.867	820.924	816.944	1316.9	1298.2	1279.7	1261.4	1243.2
x1 = 0.383	836.791	832.842	828.881	824.93	820.957	1319.8	1301.2	1282.7	1264.5	1246.4
x1 = 0.4544	847.683	843.729	839.761	835.783	831.821	1328	1309.5	1291.2	1273.2	1255.2
x1 = 0.5108	856.418	852.463	848.467	844.479	840.528	1334.9	1316.5	1298.3	1280.4	1262.6
x1 = 0.5568	863.63	859.691	855.668	851.665	847.701	1340.7	1322.4	1304.3	1286.5	1268.8
x1 = 0.6107	872.206	868.299	864.217	860.198	856.228	1347.7	1329.6	1311.6	1294	1276.4
x1 = 0.6683	881.543	877.641	873.531	869.475	865.486	1355.6	1337.5	1319.7	1302.2	1284.8
x1 = 0.6924	885.505	881.587	877.468	873.41	869.396	1358.9	1340.9	1323.2	1305.8	1288.4
x1 = 0.7544	895.808	891.893	887.746	883.674	879.592	1367.8	1350	1332.3	1315.2	1297.8
x1 = 0.7963	902.873	898.935	894.791	890.73	886.574	1373.9	1356.2	1338.7	1321.6	1304.4
x1 = 0.858	913.335	909.366	905.245	901.206	896.983	1383.2	1365.7	1348.3	1331.5	1314.2
x1 = 0.9079	921.784	917.773	913.7	909.674	905.434	1390.9	1373.6	1356.4	1339.6	1322.3
x1 = 0.9553	929.676	925.674	921.63	917.622	913.46	1398.4	1381.3	1364.2	1347.6	1330.2
